In patent US10004711B2, “Methods and compositions comprising 10-hydroxy-2-decenoic acid” (DSM IP ASSETS B.V., priority 2014, dated 2018):

How the values were obtained:
[1] = system: Neurons from the brain's hippocampus; assay: In vitro hypoxia cell death (ethidium homodimer); format: cell-based, rat; conditions: for Cell Death (% Control): hypoxia (<0.3% O2) 48 h
Experimental: Neurons from the brain's hippocampus were derived from E17 pups and incubated for 7 days. The neurons were then pre-treated with QBA for 48 hours and subsequently exposed to a hypoxia (<0.3% O2) for 48 hours. The cultures were stained with calcein AM, a marker of live cells, and with ethidium homodimer, a marker for dead cells. The fluorescence of each of these markers was then quantitated with a fluorimeter.

[2] = Weight after Barnes maze psychological stress (Example 9); format: in vivo, rat
Experimental: Aged male rats were fed 10-Hydroxy-2-decenoic acid (QBA) for approximately […] from 12-months to 20-months of age and the weight of rats was recorded (N=11-14 per group). During the last month of QBA feeding animals were subjected to the psychological stress of the Barnes maze.

older rats = assay: Open field test, older rats fed QBA; format: in vivo, rat; conditions: for Center Entries (#): rats 15 months old, thirty minutes
Experimental: The dose-response characteristics of 10-Hydroxy-2-decenoic acid's (QBA's) potential brain health benefits during aging were assessed for mood in older rats (18-20 months old).
In the open field test each rat was placed in a novel environment consisting of an arena measuring 100×100×40 cm. Rats were placed in the middle of the chamber and behavior in the open field was recorded for thirty minutes with a digital camera and measured by software. More time spent in the center of the area is an indication of a reduced anxiety-like state. Rats were tested at 15 months old (N=11-12 per group).

[3] = Body weight of aged male rats fed QBA (Example 7); format: in vivo, rat
Experimental: Aged male rats were fed 10-Hydroxy-2-decenoic acid (QBA) for approximately 7 months from 11-months to 18-months of age and the weight of rats was recorded.

Compound: O=C(O)C=CCCCCCCCO [QBA, 10-Hydroxy-2-decenoic acid]
- Cell Death (% Control) ([1]; QBA 0.10 μM pre-treatment 48 h): 86.26 % Control
- Cell Death (% Control) ([1]; QBA 0.30 μM pre-treatment 48 h): 83.62 % Control
- Cell Death (% Control) ([1]; QBA 1.00 μM pre-treatment 48 h): 83.00 % Control
- Cell Death (% Control) ([1]; QBA 3.00 μM pre-treatment 48 h): 82.20 % Control
- Cell Death (% Control) ([1]; QBA 10.00 μM pre-treatment 48 h): 85.13 % Control
- Cell Death (% Control) ([1]; QBA 30.00 μM pre-treatment 48 h): 82.29 % Control
- Cell Death (% Control) ([1]; QBA 100.00 μM pre-treatment 48 h): 86.39 % Control
- cell death after low oxygen exposure ([1]; summary of Table 4): decreased cell death
- % Change (Weight after Barnes maze) ([2]; QBA 12 mg/kg/day, behavior stress day 7): −0.15%
- % Change (Weight after Barnes maze) ([2]; QBA 12 mg/kg/day, behavior stress day 14): −0.20%
- % Change (Weight after Barnes maze) ([2]; QBA 12 mg/kg/day, behavior stress day 21): 0.56%
- % Change (Weight after Barnes maze) ([2]; QBA 12 mg/kg/day, behavior stress day 28): 0.63%
- % Change (Weight after Barnes maze) ([2]; QBA 12 mg/kg/day, behavior stress day 35): 0.87%
- % Change (Weight after Barnes maze) ([2]; QBA 24 mg/kg/day, behavior stress day 7): −0.15%
- % Change (Weight after Barnes maze) ([2]; QBA 24 mg/kg/day, behavior stress day 14): 0.02%
- % Change (Weight after Barnes maze) ([2]; QBA 24 mg/kg/day, behavior stress day 21): 0.54%
- % Change (Weight after Barnes maze) ([2]; QBA 24 mg/kg/day, behavior stress day 28): 0.74%
- % Change (Weight after Barnes maze) ([2]; QBA 24 mg/kg/day, behavior stress day 35): 1.32%
- weight change versus control, repeated measures ANOVA ([2]; all doses versus 0 mg/kg/day QBA or 0 mg/kg/day QBA+0.07% DHA): small but significant increase
- weight loss associated with the psychological stress ([2]; summary of Table 15): mitigated weight loss
- Center Entries (#) (older rats; QBA 0.4 mg/kg/day): 1.82 #
- Center Entries (#) (older rats; QBA 4 mg/kg/day): 2.50 #
- Center Entries (#) (older rats; QBA 12 mg/kg/day): 1.82 #
- anxiety as measured by the number of center entries in the open field arena (older rats; QBA 24 mg/kg/d, 15-18-month old male rats): decreased anxiety
- Center Entries (#) (older rats; QBA 24 mg/kg/day): 3.75 #
- Avg Wt ([3]; QBA 0.4 mg/kg/day, study day 0): 509.6 g
- Avg Wt ([3]; QBA 0.4 mg/kg/day, study day 7): 516.1 g
- Avg Wt ([3]; QBA 0.4 mg/kg/day, study day 21): 524.4 g
- Avg Wt ([3]; QBA 0.4 mg/kg/day, study day 29): 508.6 g
- Avg Wt ([3]; QBA 0.4 mg/kg/day, study day 36): 523.1 g
- Avg Wt ([3]; QBA 0.4 mg/kg/day, study day 50): 554.6 g
- Avg Wt ([3]; QBA 0.4 mg/kg/day, study day 57): 559.5 g
- Avg Wt ([3]; QBA 0.4 mg/kg/day, study day 64): 566.7 g
- Avg Wt ([3]; QBA 0.4 mg/kg/day, study day 71): 568.6 g
- Avg Wt ([3]; QBA 0.4 mg/kg/day, study day 78): 570.3 g
- Avg Wt ([3]; QBA 0.4 mg/kg/day, study day 85): 577.3 g
- Avg Wt ([3]; QBA 0.4 mg/kg/day, study day 92): 581.3 g
- Avg Wt ([3]; QBA 0.4 mg/kg/day, study day 99): 583.8 g
- Avg Wt ([3]; QBA 0.4 mg/kg/day, study day 106): 592.7 g
- Avg Wt ([3]; QBA 0.4 mg/kg/day, study day 113): 593.2 g
- Avg Wt ([3]; QBA 0.4 mg/kg/day, study day 120): 596.8 g
- Avg Wt ([3]; QBA 0.4 mg/kg/day, study day 127): 590.7 g
- Avg Wt ([3]; QBA 0.4 mg/kg/day, study day 141): 589.8 g
- Avg Wt ([3]; QBA 0.4 mg/kg/day, study day 148): 578.0 g
- Avg Wt ([3]; QBA 0.4 mg/kg/day, study day 155): 585.4 g
- Avg Wt ([3]; QBA 0.4 mg/kg/day, study day 162): 593.6 g
- Avg Wt ([3]; QBA 0.4 mg/kg/day, study day 169): 601.7 g
- Avg Wt ([3]; QBA 0.4 mg/kg/day, study day 176): 573.6 g
- Avg Wt ([3]; QBA 0.4 mg/kg/day, study day 182): 588.7 g
- Avg Wt ([3]; QBA 0.4 mg/kg/day, study day 190): 584.1 g
- Avg Wt ([3]; QBA 0.4 mg/kg/day, study day 197): 582.6 g
- Avg Wt ([3]; QBA 0.4 mg/kg/day, study day 204): 580.1 g
- Avg Wt ([3]; QBA 0.4 mg/kg/day, study day 211): 575.8 g
- Avg Wt ([3]; QBA 0.4 mg/kg/day, study day 217): 582.6 g
- Avg Wt ([3]; QBA 4 mg/kg/day, study day 0): 509.8 g
- Avg Wt ([3]; QBA 4 mg/kg/day, study day 7): 518.9 g
- Avg Wt ([3]; QBA 4 mg/kg/day, study day 21): 527.4 g
- Avg Wt ([3]; QBA 4 mg/kg/day, study day 29): 511.6 g
- Avg Wt ([3]; QBA 4 mg/kg/day, study day 36): 526.8 g
- Avg Wt ([3]; QBA 4 mg/kg/day, study day 50): 567.3 g
- Avg Wt ([3]; QBA 4 mg/kg/day, study day 57): 571.0 g
- Avg Wt ([3]; QBA 4 mg/kg/day, study day 64): 576.4 g
- Avg Wt ([3]; QBA 4 mg/kg/day, study day 71): 576.2 g
- Avg Wt ([3]; QBA 4 mg/kg/day, study day 78): 584.8 g
- Avg Wt ([3]; QBA 4 mg/kg/day, study day 85): 587.5 g
- Avg Wt ([3]; QBA 4 mg/kg/day, study day 92): 584.3 g
- Avg Wt ([3]; QBA 4 mg/kg/day, study day 99): 595.4 g
- Avg Wt ([3]; QBA 4 mg/kg/day, study day 106): 592.5 g
- Avg Wt ([3]; QBA 4 mg/kg/day, study day 113): 594.7 g
- Avg Wt ([3]; QBA 4 mg/kg/day, study day 120): 592.2 g
- Avg Wt ([3]; QBA 4 mg/kg/day, study day 127): 592.4 g
